Measured values published in the NIST ThermoML archive (doi:10.1021/je1005196).
± gives the expanded uncertainty stated by the source.

What was measured:
[1] = Liquid; for speed of sound / mass density: 101.33 kPa; for speed of sound: Linear variable-path acoustic interferometer; for mass density: Pycnometric method
[2] = excess molar enthalpy (molar enthalpy of mixing); xn = mol fraction of the nth substance listed; conditions: 308.15 K, 101 kPa, Liquid, Calvet calorimetry
[3] = xn = mol fraction of the nth substance listed; conditions: 308.15 K, 101 kPa, Liquid; for excess molar volume: Direct dilatometry; for speed of sound: Linear variable-path acoustic interferometer

Cc1ccccc1N [2-methylaniline]
[1]
Conditions	mass density [kg/m3]	speed of sound [m/s]	vapor or sublimation pressure [kPa]
298.15 K	994.2 ± 0.6	1602 ± 3	–
308.15 K	–	–	0.0667 ± 0.08

Conditions	vapor or sublimation pressure [kPa]
[1], 298.15 K, Closed cell (Static) method	0.04

Cc1ccccc1N [2-methylaniline] + C1CCOCC1
Conditions	excess molar enthalpy [kcal/mol]	excess molar volume [m3/mol]	speed of sound [m/s]
[2], x2 = 0.0701	-0.0286 ± 0.000693	–	–
[2], x2 = 0.1765	-0.0678 ± 0.00151	–	–
[2], x2 = 0.2379	-0.0874 ± 0.00191	–	–
[2], x2 = 0.295	-0.103 ± 0.00225	–	–
[2], x2 = 0.3344	-0.113 ± 0.00239	–	–
[2], x2 = 0.3911	-0.124 ± 0.00263	–	–
[2], x2 = 0.435	-0.137 ± 0.00287	–	–
[2], x2 = 0.4901	-0.137 ± 0.00287	–	–
[2], x2 = 0.5521	-0.139 ± 0.00311	–	–
[2], x2 = 0.6276	-0.136 ± 0.00287	–	–
[2], x2 = 0.6982	-0.126 ± 0.00263	–	–
[2], x2 = 0.741	-0.117 ± 0.00263	–	–
[2], x2 = 0.8546	-0.0792 ± 0.00174	–	–
[2], x2 = 0.9201	-0.048 ± 0.00108	–	–
[3], x2 = 0.0832	–	–	1535 ± 3
[3], x2 = 0.1451	–	–	1505 ± 3
[3], x2 = 0.1881	–	-3.94e-07 ± 5e-09	–
[3], x2 = 0.2102	–	–	1475 ± 3
[3], x2 = 0.2321	–	-4.57e-07 ± 5e-09	–
[3], x2 = 0.2918	–	–	1441 ± 3
[3], x2 = 0.2967	–	-5.47e-07 ± 6e-09	–
[3], x2 = 0.3245	–	-5.75e-07 ± 6e-09	–
[3], x2 = 0.3581	–	–	1414 ± 3
[3], x2 = 0.3834	–	-6.36e-07 ± 7e-09	–
[3], x2 = 0.4002	–	–	1399 ± 3
[3], x2 = 0.4704	–	-7.08e-07 ± 8e-09	–
[3], x2 = 0.4981	–	–	1364 ± 3
[3], x2 = 0.5181	–	-7.32e-07 ± 8e-09	–
[3], x2 = 0.5423	–	-7.37e-07 ± 8e-09	–
[3], x2 = 0.5638	–	–	1343 ± 3
[3], x2 = 0.6112	–	-7.45e-07 ± 8e-09	–
[3], x2 = 0.6118	–	–	1328 ± 3
[3], x2 = 0.6877	–	-7.22e-07 ± 8e-09	–
[3], x2 = 0.7148	–	–	1299 ± 3
[3], x2 = 0.7414	–	-6.82e-07 ± 7e-09	–
[3], x2 = 0.7981	–	–	1277 ± 3
[3], x2 = 0.8213	–	-5.66e-07 ± 6e-09	–
[3], x2 = 0.8412	–	–	1267 ± 3
[3], x2 = 0.8974	–	-3.81e-07 ± 5e-09	–
[3], x2 = 0.9003	–	–	1253 ± 3
[3], x2 = 0.9426	–	-2.35e-07 ± 3e-09	–
[3], x2 = 0.9628	–	–	1240 ± 3

CNc1ccccc1 [N-methylaniline]
[1]
Conditions	mass density [kg/m3]	speed of sound [m/s]	vapor or sublimation pressure [kPa]
298.15 K	982.4 ± 1.3	1572 ± 3	–
308.15 K	–	–	0.1067 ± 0.08

Conditions	vapor or sublimation pressure [kPa]
[1], 298.15 K, Closed cell (Static) method	0.0667 ± 0.08

CNc1ccccc1 [N-methylaniline] + C1CCOCC1
Conditions	excess molar enthalpy [kcal/mol]	excess molar volume [m3/mol]	speed of sound [m/s]
[2], x2 = 0.0856	-0.0264 ± 0.000645	–	–
[2], x2 = 0.1321	-0.0407 ± 0.000932	–	–
[2], x2 = 0.1976	-0.06 ± 0.00134	–	–
[2], x2 = 0.2434	-0.0727 ± 0.0016	–	–
[2], x2 = 0.3122	-0.0899 ± 0.00196	–	–
[2], x2 = 0.3876	-0.105 ± 0.00229	–	–
[2], x2 = 0.4444	-0.114 ± 0.00239	–	–
[2], x2 = 0.4878	-0.119 ± 0.00263	–	–
[2], x2 = 0.5548	-0.122 ± 0.00263	–	–
[2], x2 = 0.6233	-0.121 ± 0.00263	–	–
[2], x2 = 0.6921	-0.113 ± 0.00239	–	–
[2], x2 = 0.7432	-0.104 ± 0.00227	–	–
[2], x2 = 0.8767	-0.0624 ± 0.00139	–	–
[2], x2 = 0.9549	-0.0256 ± 0.000621	–	–
[3], x2 = 0.0541	–	–	1509 ± 3
[3], x2 = 0.0764	–	-7.2e-08 ± 2e-09	–
[3], x2 = 0.1321	–	–	1490 ± 3
[3], x2 = 0.1416	–	-1.25e-07 ± 3e-09	–
[3], x2 = 0.1921	–	-1.59e-07 ± 3e-09	–
[3], x2 = 0.2316	–	–	1468 ± 3
[3], x2 = 0.244	–	-1.89e-07 ± 3e-09	–
[3], x2 = 0.2811	–	–	1457 ± 3
[3], x2 = 0.2905	–	-2.1e-07 ± 3e-09	–
[3], x2 = 0.3451	–	-2.27e-07 ± 3e-09	–
[3], x2 = 0.3612	–	–	1437 ± 3
[3], x2 = 0.3984	–	-2.37e-07 ± 3e-09	–
[3], x2 = 0.4112	–	–	1424 ± 3
[3], x2 = 0.4515	–	-2.4e-07 ± 3e-09	–
[3], x2 = 0.4932	–	–	1400 ± 3
[3], x2 = 0.5224	–	-2.34e-07 ± 3e-09	–
[3], x2 = 0.5638	–	–	1377 ± 3
[3], x2 = 0.613	–	-2.1e-07 ± 3e-09	–
[3], x2 = 0.6148	–	–	1360 ± 3
[3], x2 = 0.6873	–	-1.78e-07 ± 3e-09	–
[3], x2 = 0.6919	–	–	1332 ± 3
[3], x2 = 0.7418	–	–	1313 ± 3
[3], x2 = 0.7531	–	-1.44e-07 ± 3e-09	–
[3], x2 = 0.8141	–	–	1287 ± 3
[3], x2 = 0.8231	–	-1.03e-07 ± 2e-09	–
[3], x2 = 0.8992	–	–	1257 ± 3
[3], x2 = 0.9191	–	-4.5e-08 ± 2e-09	–
[3], x2 = 0.9514	–	–	1239 ± 3

Nc1ccccc1 [aniline]
[1]
Conditions	mass density [kg/m3]	speed of sound [m/s]	vapor or sublimation pressure [kPa]
298.15 K	1017.2 ± 0.6	1635 ± 3	–
308.15 K	–	–	0.12 ± 0.08

Conditions	vapor or sublimation pressure [kPa]
[1], 298.15 K, Closed cell (Static) method	0.0933 ± 0.08

Nc1ccccc1 [aniline] + C1CCOCC1
Conditions	excess molar enthalpy [kcal/mol]	excess molar volume [m3/mol]	speed of sound [m/s]
[2], x2 = 0.0545	-0.02 ± 0.000502	–	–
[2], x2 = 0.1711	-0.0599 ± 0.00134	–	–
[2], x2 = 0.2234	-0.0767 ± 0.0017	–	–
[2], x2 = 0.2761	-0.0929 ± 0.00203	–	–
[2], x2 = 0.3509	-0.114 ± 0.00239	–	–
[2], x2 = 0.4214	-0.132 ± 0.00287	–	–
[2], x2 = 0.5512	-0.155 ± 0.00335	–	–
[2], x2 = 0.5879	-0.158 ± 0.00335	–	–
[2], x2 = 0.6213	-0.159 ± 0.00335	–	–
[2], x2 = 0.6821	-0.157 ± 0.00335	–	–
[2], x2 = 0.7511	-0.147 ± 0.00311	–	–
[2], x2 = 0.8145	-0.128 ± 0.00287	–	–
[2], x2 = 0.8914	-0.0893 ± 0.00196	–	–
[2], x2 = 0.9413	-0.0539 ± 0.00122	–	–
[3], x2 = 0.0702	–	-9.7e-08 ± 2e-09	–
[3], x2 = 0.0912	–	–	1564 ± 3
[3], x2 = 0.1516	–	–	1543 ± 3
[3], x2 = 0.1767	–	-2.45e-07 ± 3e-09	–
[3], x2 = 0.2381	–	-3.22e-07 ± 4e-09	–
[3], x2 = 0.2414	–	–	1510 ± 3
[3], x2 = 0.2952	–	-3.84e-07 ± 5e-09	–
[3], x2 = 0.299	–	–	1490 ± 3
[3], x2 = 0.3347	–	-4.2e-07 ± 5e-09	–
[3], x2 = 0.3541	–	–	1470 ± 3
[3], x2 = 0.3913	–	-4.59e-07 ± 5e-09	–
[3], x2 = 0.4354	–	-4.8e-07 ± 5e-09	–
[3], x2 = 0.4417	–	–	1438 ± 3
[3], x2 = 0.4904	–	-4.92e-07 ± 6e-09	–
[3], x2 = 0.5312	–	–	1404 ± 3
[3], x2 = 0.5525	–	-4.87e-07 ± 5e-09	–
[3], x2 = 0.5943	–	–	1379 ± 3
[3], x2 = 0.628	–	-4.56e-07 ± 5e-09	–
[3], x2 = 0.6511	–	–	1357 ± 3
[3], x2 = 0.6989	–	-4.01e-07 ± 5e-09	–
[3], x2 = 0.7344	–	–	1324 ± 3
[3], x2 = 0.7412	–	-3.59e-07 ± 4e-09	–
[3], x2 = 0.8117	–	–	1294 ± 3
[3], x2 = 0.8548	–	-2.15e-07 ± 3e-09	–
[3], x2 = 0.883	–	–	1267 ± 3
[3], x2 = 0.9204	–	-1.19e-07 ± 3e-09	–
[3], x2 = 0.9413	–	–	1245 ± 3
[3], x2 = 0.9812	–	–	1231 ± 3

C1CCOCC1 [tetrahydropyran]
[1]
Conditions	mass density [kg/m3]	vapor or sublimation pressure [kPa]
298.15 K	868.6 ± 0.5	–
308.15 K	–	13.79 ± 0.47

Conditions	vapor or sublimation pressure [kPa]
[1], 298.15 K, Closed cell (Static) method	9.533 ± 0.08
